Source: ChEMBL document CHEMBL1862790, “Optimisation of fenarimol series for the treatment of Chagas disease”

Experiments:
[1] = DNDI: Cytotoxicity against L-6 rat myoblasts from skeletal muscle cells; settings: L6 rat skeletal muscle myoblast cells
Trypanosoma cruzi [2] = experiment: microbe, parasite or virus in culture; type: functional, organism-based, Tulahuen LacZ, Clone C4; settings: Trypanosoma cruzi, Tulahuen LacZ, Clone C4
Trypanosoma cruzi [3] = experiment: microbe, parasite or virus in culture; type: functional, Tulahuen LacZ, Clone C4; settings: Trypanosoma cruzi, Tulahuen LacZ, Clone C4

| Compound | IC50 ([1]; IC50) | IC50 (Trypanosoma cruzi [2]) | IC90 (Trypanosoma cruzi [3]) | IC50 [1] |
| --- | --- | --- | --- | --- |
| Clc1ccc(C(c2cccnc2)N2CCCCC2)cc1 (configuration not stated) | > 100000 nM | 180 nM | 450 nM |  |
| Cc1ccncc1C(O)(c1ccc(Cl)cc1)c1ccc(C(F)(F)F)cc1 (configuration not stated) | 56500 nM | 42 nM | 140 nM |  |
| CCCCOC(Cc1ccc(Cl)nc1)c1ccc(Cl)cc1Cl (configuration not stated) | 91400 nM | > 10000 nM | > 10000 nM |  |
| CN1CCN(C(c2ccc(Cl)cc2)c2cccnc2)CC1 (configuration not stated) | > 100000 nM | > 1000 nM | > 1000 nM |  |
| Clc1ccc(C(NCCc2c[nH]c3ccccc23)c2cccnc2)cc1 (configuration not stated) | 48700 nM | 14 nM | 190 nM |  |
| Clc1ccc(C(NCc2ccccc2)c2cccnc2)cc1 (configuration not stated) | > 100000 nM | 96 nM | 210 nM |  |
| CON=C(Cc1ccccc1)c1ccc(Cl)cc1 | 70200 nM | > 10000 nM | > 10000 nM |  |
| CON=C(Cc1ccccc1C)c1cccnc1 | > 100000 nM | > 1000 nM | > 1000 nM |  |
| OC(c1ccc(C(F)(F)F)cc1)(c1ccc(C(F)(F)F)cc1)c1cc2ccccc2[nH]1 | 11600 nM | 3980 nM | 7590 nM |  |
| Cc1ccncc1C(O)(c1ccc(Cl)cc1)c1cncnc1 (configuration not stated) | > 100000 nM | 253 nM | 570 nM |  |
| OC(c1cccnc1)(c1cccs1)c1ccccc1Cl (configuration not stated) | > 100000 nM | 345 nM | 670 nM |  |
| OC(c1ccc(Cl)cc1)(c1cccnc1)c1nccs1 (configuration not stated) | > 100000 nM | 201 nM | 505 nM |  |
| OC(c1cccnc1)(c1cccs1)c1ccc(Cl)cc1F (configuration not stated) | > 100000 nM | 5 nM | 105 nM |  |
| OC(c1ccc(Cl)cc1)(c1ccncn1)c1ccccc1Cl (configuration not stated) |  | 7050 nM | 8570 nM | > 100000 nM |
| CCCC=C(c1ccc(Cl)cc1)c1cccnc1 | 79400 nM | 75 nM | 380 nM |  |
| CS(=O)(=O)Nc1ccc(C(O)(c2ccc(Cl)cc2)c2cccnc2)cc1 (configuration not stated) | > 100000 nM | 30 nM | 240 nM |  |
| N#Cc1ccccc1C(O)(c1ccc(Cl)cc1)c1cccnc1 (configuration not stated) | > 100000 nM | 62 nM | 150 nM |  |
| Clc1ccc(C(=NN2CCCCC2)c2cccnc2)cc1 | 56800 nM | 381 nM | 630 nM |  |
| CCN1CCN(C(c2ccc(Cl)cc2)c2cccnc2)CC1 (configuration not stated) | > 100000 nM | > 1000 nM | > 1000 nM |  |
| NC(=O)c1ccc(C(O)(c2ccc(C(F)(F)F)cc2)c2cccnc2)cc1 (configuration not stated) | > 100000 nM | 120 nM | 390 nM |  |

| Compound | IC50 ([1]; IC50) | IC50 (Trypanosoma cruzi [2]) | IC90 (Trypanosoma cruzi [3]) | IC50 [1] |
| --- | --- | --- | --- | --- |
| Cc1ccc(C(O)(c2ccc(Cl)cc2)c2cncnc2)cn1 (configuration not stated) | > 100000 nM | 435 nM | > 1000 nM |  |
| CCCCc1ccc(C(O)(c2ccc(Cl)cc2)c2ccc(Cl)cc2)cn1 | 54700 nM | > 1000 nM | > 1000 nM |  |
| OC(c1ccc(Cl)cc1)(c1cccnc1)c1ccsc1 (configuration not stated) | > 100000 nM | 78 nM | 154 nM |  |
| CCCCC(O)(c1ccc(OC(C)C)cc1)c1cccnc1 (configuration not stated) | 55900 nM | 17 nM | 36 nM |  |
| OC(c1ccc(Cl)cc1)(c1ccc(C(F)(F)F)cc1)c1nnc[nH]1 (configuration not stated) | > 100000 nM | 7420 nM | > 10000 nM |  |
| CC(C)CC(Nc1cccnc1)c1ccc(Cl)cc1 (configuration not stated) | 56200 nM | 640 nM | > 1000 nM |  |
| OC(c1cccnc1)(c1cccc(C(F)(F)F)c1)c1ccccc1Cl (configuration not stated) |  | 446 nM | 749 nM | 58000 nM |
| CO/N=C(\c1ccc(Cl)cc1)c1cccnc1 | > 100000 nM | > 1000 nM | > 1000 nM |  |
| OC(c1ccc(Cl)cc1)(c1ccc(C(F)(F)F)cc1)c1cc(-c2ccccc2)on1 (configuration not stated) | 18700 nM | > 1000 nM | > 1000 nM |  |
| OC(c1ccc(Cl)cc1)(c1ccc(C(F)(F)F)cc1)c1cnc2ccccc2c1 (configuration not stated) | 62600 nM | > 1000 nM | > 1000 nM |  |
| Cn1cccc1C(O)(c1ccc(Cl)cc1)c1ccc(Cl)cc1 | 55800 nM | > 10000 nM | > 10000 nM |  |
| Cc1cnc(C(O)(c2ccc(Cl)cc2)c2ccc(C(F)(F)F)cc2)cn1 (configuration not stated) | 61600 nM | > 1000 nM | > 1000 nM |  |
| CON=C(Cc1ccccc1)c1cccnc1 | > 100000 nM | > 1000 nM | > 1000 nM |  |
| NC(=O)c1ccccc1C(O)(c1ccc(Cl)cc1)c1cccnc1 (configuration not stated) | > 100000 nM | 33 nM | 140 nM |  |
| OC(c1ccc(Cl)cc1)(c1ccc(C(F)(F)F)cc1)c1ccc2ncccc2c1 (configuration not stated) | 56300 nM | 2840 nM | 7490 nM |  |
| CC(C)Oc1ccc(C(O)(c2cccnc2)c2cnc(Cl)nc2)cc1 (configuration not stated) | > 100000 nM | 293 nM | 670 nM |  |
| CC(C)CNC(c1ccc(Cl)cc1)c1cccnc1 (configuration not stated) | > 100000 nM | 200 nM | 430 nM |  |
| CC(C)c1ccc(C(O)(c2ccc(C(F)(F)F)cc2)c2cncnc2)cc1 (configuration not stated) | 56500 nM | 4.5 nM | 20 nM |  |
| Cc1ccsc1C(O)(c1ccc(Cl)cc1)c1ccc(Cl)cc1 | 58800 nM | > 10000 nM | > 10000 nM |  |
